{
  "source": "paper PMC3770139",
  "about": "(Molecular cell, 2013)",
  "molecular_target": "T1, Gpa1 (yeast Gα) (Saccharomyces cerevisiae, UniProt P08539)",
  "T1 sequence (P08539 2-472)": "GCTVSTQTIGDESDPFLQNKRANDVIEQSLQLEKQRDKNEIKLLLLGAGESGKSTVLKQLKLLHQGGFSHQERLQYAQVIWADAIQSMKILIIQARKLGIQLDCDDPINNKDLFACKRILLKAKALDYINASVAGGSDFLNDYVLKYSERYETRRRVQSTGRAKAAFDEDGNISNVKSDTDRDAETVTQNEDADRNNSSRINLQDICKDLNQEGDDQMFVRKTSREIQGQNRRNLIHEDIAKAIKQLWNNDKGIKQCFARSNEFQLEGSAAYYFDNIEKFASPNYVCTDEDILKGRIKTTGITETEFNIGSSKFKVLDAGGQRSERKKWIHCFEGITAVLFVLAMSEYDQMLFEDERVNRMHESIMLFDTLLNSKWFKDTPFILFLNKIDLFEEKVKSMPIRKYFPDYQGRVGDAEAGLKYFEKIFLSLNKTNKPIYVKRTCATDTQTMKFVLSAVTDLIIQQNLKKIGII",
  "experiment": "steady-state hydrolysis of gamma-32P GTP, charcoal assay",
  "assay_type": "biochemical",
  "conditions": "turnover only; 5 µM GTP, 1 mM MgCl2, 37 °C, pH 6.0, 7.0, 8.0",
  "data": [
    {"smiles": "Nc1nc2c(ncn2[C@@H]2O[C@H](COP(=O)(O)OP(=O)(O)OP(=O)(O)O)[C@@H](O)[C@H]2O)c(=O)[nH]1", "note": "[GTP]", "values": [
      {"measurement": "steady-state hydrolysis of gamma-32P GTP, charcoal assay", "result": "Steady-state GTP hydrolysis by yeast Gpa1 and mammalian Gαi"}
    ]}
  ]
}
